Results taken from publication PMC6946680, “Modulation of brain cation-Cl^− cotransport via the SPAK kinase inhibitor ZT-1a” (Nature Communications, 2020).
Where “and” joins values, the source holds several entries; their conditions need not be identical. Identical values can stand only once.

Key:
[1] = tested on: KCC3 pThr991; assay: Immunoblot of KCC site 1 phosphorylation (KCC3 Thr991) in HEK-293 cells transfected with FLAG-KCC3; type: cell-based, human
[2] = tested on: NKCC1 pThr203/207/212; assay: Immunoblot of NKCC1 p-Thr203/Thr207/Thr212 in HEK-293 cells; type: cell-based, human
Experimental: (§1) Band intensities were quantitated with ImageJ software. ***p < 0.001; **p < 0.01; *p < 0.05; ns, nonsignificant [by one-way ANOVA with post hoc testing (n = 6, error bars represent the mean ± SEM)].
(§2) Thirty-six hours post transfection, cells were stimulated with either control isotonic or hypotonic medium for a period of 30 min. […] Protein concentrations were determined using the Bradford method. Cells were treated with the indicated concentrations of the SPAK/OSR1 inhibitors.

[3] = tested on: KCC3 pThr1048; assay: Immunoblot of KCC site 2 phosphorylation (KCC3 Thr1048) in HEK-293 cells transfected with FLAG-KCC3; type: cell-based, human
[4] = tested on: SPAK pSer373; assay: Immunoblot of SPAK/OSR1 p-Ser373/Ser325 in HEK-293 cells; type: cell-based, human
Experimental: as §1, §2

[5] = target: T1, GST–[T233E]SPAK kinase (Homo sapiens, UniProt Q9UEW8, T231E); assay: SPAK kinase assay with CATCHtide and IC50 determination; type: biochemical
T1 construct: made in house; host or cells: E. coli
Text: II. Experimental procedures
1. Reagents and General methods
Tissue culture reagents were from Life Technologies. P81 phosphocellulose paper was from Whatman […]
and [γ-32P]-ATP was from Perkin Elmer. […] Protein G […]
sepharose was from Amersham. DNA constructs used for transfection were purified from Escherichia coli DH5α using Qiagen or Invitrogen plasmid Maxi kits according to the manufacturer's protocol. All DNA constructs were verified by DNA sequencing.
2. Plasmids, protein expression and purification
DNA clones were from the Division of Signal Transduction Therapy (University of Dundee). The SPAK proteins were expressed in E. Coli and purified as described previously 1.
3. SPAK kinase assays and IC50 determination
SPAK kinase assays employed CATCHtide (cation chloride co-transporter peptide substrate). Peptide kinase assays, performed in triplicate, were set up in a total volume of 50 μl containing 0.5 μg GST– […]
cpm/pmol) and the indicated concentrations of inhibitor dissolved in DMSO. After incubation for 30 min at 30°C, reactions were terminated by spotting 40 μl of the reaction mix onto P81 phosphocellulose paper and immersion in 50 mM phosphoric acid. The papers were washed extensively and incorporation of [γ-32P]ATP into CATCHtide was quantified by Cerenkov counting.
IC50 values were calculated with GraphPad Prism using non-linear regression analysis.
4. Fluorescence polarization […]
concentrations between 0.00001 to 1 mM. Data points are the means of three determinations, with error […]
A Supplemental Fig. 7 Effects of increasing concentrations of ZT-1a on SPAK activity in the absence […]
the absence or presence of five-fold molar excess of wild-type MO25α. b Kinetic data determined for B ZT-1a in the absence or presence of five-fold molar excess of wild-type MO25α. Data are means of […]
presence of wild-type MO25α.

[6] = Hypotonic low Cl, compound concentration 1 (unit not given)
[7] = Hypotonic low Cl, compound concentration 3 (unit not given)
[8] = Hypotonic low Cl, compound concentration 10 (unit not given)
[9] = Isotonic control, compound concentration 1 (unit not given)
[10] = Isotonic control, compound concentration 3 (unit not given)
[11] = Isotonic control, compound concentration 10 (unit not given)

Cc1cc(C(C#N)c2ccc(Cl)cc2)c(Cl)cc1NC(=O)c1ccccc1N (centres unmarked) [ZT-1d]
Site-1 phospho / KCC [1, 6]: 0.516 and 0.487 and 0.55 and 0.508
Site-1 phospho / KCC [1, 7]: 0.509 and 0.49 and 0.511 and 0.521
Site-1 phospho / KCC [1, 8]: 0.276 and 0.218 and 0.234 and 0.258
Site-1 phospho / KCC [1, 9]: 0.49 and 0.471 and 0.48 and 0.466
Site-1 phospho / KCC [1, 10]: 0.355 and 0.36 and 0.38 and 0.371
Site-1 phospho / KCC [1, 11]: 0.218 and 0.232 and 0.255 and 0.241
pThrNKCC1 / NKCC1 [2, 6]: 0.46 and 0.429 and 0.413 and 0.49
pThrNKCC1 / NKCC1 [2, 7]: 0.27 and 0.21 and 0.203 and 0.251
pThrNKCC1 / NKCC1 [2, 8]: 0.11 and 0.077 and 0.102 and 0.085
pThrNKCC1 / NKCC1 [2, 9]: 0.313 and 0.307 and 0.286 and 0.297
pThrNKCC1 / NKCC1 [2, 10]: 0.143 and 0.119 and 0.09 and 0.126
pThrNKCC1 / NKCC1 [2, 11]: 0.055 and 0.031 and 0.042 and 0.047
Site-2 phospho / KCC [3, 6]: 0.37 and 0.41 and 0.35 and 0.482
Site-2 phospho / KCC [3, 7]: 0.29 and 0.25 and 0.23 and 0.287
Site-2 phospho / KCC [3, 8]: 0.105 and 0.124 and 0.08 and 0.117
Site-2 phospho / KCC [3, 9]: 0.412 and 0.477 and 0.43 and 0.521
Site-2 phospho / KCC [3, 10]: 0.209 and 0.165 and 0.191 and 0.177
Site-2 phospho / KCC [3, 11]: 0.108 and 0.08 and 0.114 and 0.094
pSer373 / SPAK [4, 6]: 0.19 and 0.21 and 0.18 and 0.207
pSer373 / SPAK [4, 7]: 0.131 and 0.12 and 0.103 and 0.116
pSer373 / SPAK [4, 8]: 0.04 and 0.025 and 0.035 and 0.031
pSer373 / SPAK [4, 9]: 0.11 and 0.119 and 0.109 and 0.101
pSer373 / SPAK [4, 10]: 0.072 and 0.065 and 0.051 and 0.063
pSer373 / SPAK [4, 11]: 0.022 and 0.031 and 0.038 and 0.028

CN[C@@H]1C[C@H]2O[C@@](C)([C@@H]1OC)n1c3ccccc3c3c4c(c5c6ccccc6n2c5c31)C(=O)NC4 [staurosporine, reference compound]
SPAK kinase activity signal (Fig S3 source data) ([5]; ATP 0.01 mM, inhibitor 1e-5 uM): 880 and 902
SPAK kinase activity signal (Fig S3 source data) ([5]; ATP 0.01 mM, inhibitor 0.0001 uM): 874
SPAK kinase activity signal (Fig S3 source data) ([5]; ATP 0.01 mM, inhibitor 0.001 uM): 875
SPAK kinase activity signal (Fig S3 source data) ([5]; ATP 0.01 mM, inhibitor 0.03 uM): 535 and 689 and 604
SPAK kinase activity signal (Fig S3 source data) ([5]; ATP 0.01 mM, inhibitor 0.1 uM): 405 and 495 and 442
SPAK kinase activity signal (Fig S3 source data) ([5]; ATP 0.01 mM, inhibitor 0.3 uM): 385 and 459 and 417
SPAK kinase activity signal (Fig S3 source data) ([5]; ATP 0.01 mM, inhibitor 1 uM): 408 and 363
SPAK kinase activity signal (Fig S3 source data) ([5]; ATP 0.01 mM, inhibitor 10 uM): 206 and 221
SPAK kinase activity signal (Fig S3 source data) ([5]; ATP 0.01 mM, inhibitor 100 uM): 109 and 126
SPAK kinase activity signal (Fig S3 source data) ([5]; ATP 0.01 mM, inhibitor 1000 uM): 95 and 64 and 75
SPAK kinase activity signal (Fig S3 source data) ([5]; ATP 0.1 mM, inhibitor 1e-5 uM): 880 and 897
SPAK kinase activity signal (Fig S3 source data) ([5]; ATP 0.1 mM, inhibitor 0.0001 uM): 874
SPAK kinase activity signal (Fig S3 source data) ([5]; ATP 0.1 mM, inhibitor 0.001 uM): 875 and 869
SPAK kinase activity signal (Fig S3 source data) ([5]; ATP 0.1 mM, inhibitor 0.03 uM): 715
SPAK kinase activity signal (Fig S3 source data) ([5]; ATP 0.1 mM, inhibitor 0.1 uM): 705 and 625 and 675
SPAK kinase activity signal (Fig S3 source data) ([5]; ATP 0.1 mM, inhibitor 0.3 uM): 565 and 509 and 529
SPAK kinase activity signal (Fig S3 source data) ([5]; ATP 0.1 mM, inhibitor 1 uM): 453 and 458 and 431
SPAK kinase activity signal (Fig S3 source data) ([5]; ATP 0.1 mM, inhibitor 3 uM): 389 and 363
SPAK kinase activity signal (Fig S3 source data) ([5]; ATP 0.1 mM, inhibitor 100 uM): 112 and 127
SPAK kinase activity signal (Fig S3 source data) ([5]; ATP 0.1 mM, inhibitor 1000 uM): 114 and 95
SPAK kinase activity signal (Fig S3 source data) ([5]; ATP 1 mM, inhibitor 1e-5 uM): 880
SPAK kinase activity signal (Fig S3 source data) ([5]; ATP 1 mM, inhibitor 0.0001 uM): 874
SPAK kinase activity signal (Fig S3 source data) ([5]; ATP 1 mM, inhibitor 0.001 uM): 875
SPAK kinase activity signal (Fig S3 source data) ([5]; ATP 1 mM, inhibitor 0.3 uM): 714 and 703
SPAK kinase activity signal (Fig S3 source data) ([5]; ATP 1 mM, inhibitor 1 uM): 504 and 558 and 522
SPAK kinase activity signal (Fig S3 source data) ([5]; ATP 1 mM, inhibitor 3 uM): 489 and 412 and 459
SPAK kinase activity signal (Fig S3 source data) ([5]; ATP 1 mM, inhibitor 10 uM): 406 and 421 and 391
SPAK kinase activity signal (Fig S3 source data) ([5]; ATP 1 mM, inhibitor 100 uM): 356
SPAK kinase activity signal (Fig S3 source data) ([5]; ATP 1 mM, inhibitor 1000 uM): 214 and 183
